Reference: publication PMC8041304, “Halogen Atoms in the Protein–Ligand System. Structural and Thermodynamic Studies of the Binding of Bromobenzotriazoles by the Catalytic Subunit of Human Protein Kinase CK2” (The Journal of Physical Chemistry. B, 2021)
“And” between values parts separate entries of the source, which are not always exact repeats. Equal entries are not always repeated.

What was measured:
[1] = set-up: method as in PMID 32162783; details: HPLC-derived hydrophobicity; cited from earlier work
[2] = Density measurements: partial molar volume and thermal expansivity of the solute; assay type: physicochemical; details: 50 mM phosphate buffer pH 11; for α2^0, thermal volumetric expansivity of the solute: 20, 25, 30 °C; for V2^0, partial molar volume: 25 °C
Method: Partial molar volumes were estimated with a density meter Anton Paar DMA 5000 M at 20, 25, and 30 °C from the concentration–density dependency for compounds dissolved in 50 mM phosphate buffer (pH 11). The experimental procedure and the data analysis method were described previously.[36],[57],[58] The partial molar volume at 25 °C (V2^0) and thermal volumetric expansivity of the solute (α2^0 = ∂V2^0/∂T) were estimated globally from two independent dilution series. The density of pure solvent (d0) was extrapolated individually for each experimental condition (i.e., temperature and buffer preparation). The change of d0 with temperature was further used to determine thermal volumetric expansivity coefficient of the bulk buffer according to the formula α0 = −(∂d0/∂T)/d0.
According to the Lum, Chandler, and Weeks (LCW) theory, the hydrophobic interactions scale for solutes of subnanometer size with the volume of the molecule rather than its surface.[61] We have recently proposed partial molar volume as the extensive parameter to describe both the solute volume and the solute-induced reorganization of the solvation shell.[36],[57],[58],[62],[63] By analyzing density data at three temperatures (20, 25, and 30 °C), we could estimate the partial molar volume of the ligand (V2^0) and the bulk solvent density (d0(T)). We could further separate the thermal expansivity coefficient of the bulk solvent (α0) and the apparent expansivity of the solute (α2^0). The latter parameter is comprised mainly of the thermal expansion effect of the hydration shell. The values of α0 fell within the narrow range of (26.9 ± 1.3) × 10^–5 K^–1, which is close to the literature data for water (25.72 × 10^–5 K^–1 at 25 °C).[64] […] The solute thermal expansivity (α2^0), together with the change of isobaric heat capacity upon ligand binding (ΔCp,bind), has already been associated with the properties of the solvation layer.[65],[66] Importantly, α2^0 is proportional to the partial molar volume V2^0 (Figure 3D). So, V2^0 may be another descriptor of hydrophobic interactions. Consequently, the volume-normalized solute expansivity coefficient (α = α2^0/V2^0) is almost the same for all studied bromobenzotriazoles (232 ± 22 × 10^–5 K^–1). Importantly, this value substantially exceeds the thermal expansivity coefficient of the bulk buffer (α0 = 26.9 ± 1.3 × 10^–5 K^–1), clearly confirming that water organization changes with temperature more near the solute surface than in the bulk.

[3] = set-up: method as in doi:10.1016/j.molliq.2019.111527; details: calculated water–octanol partition coefficient; cited from earlier work
hCK2α [4] = biological target: T1, hCK2α (Homo sapiens, UniProt P68400); assay: Isothermal titration calorimetry (NanoITC); assay type: binding; details: pH 8
T1 construct: made in house
T1 sequence (P68400 whole entry): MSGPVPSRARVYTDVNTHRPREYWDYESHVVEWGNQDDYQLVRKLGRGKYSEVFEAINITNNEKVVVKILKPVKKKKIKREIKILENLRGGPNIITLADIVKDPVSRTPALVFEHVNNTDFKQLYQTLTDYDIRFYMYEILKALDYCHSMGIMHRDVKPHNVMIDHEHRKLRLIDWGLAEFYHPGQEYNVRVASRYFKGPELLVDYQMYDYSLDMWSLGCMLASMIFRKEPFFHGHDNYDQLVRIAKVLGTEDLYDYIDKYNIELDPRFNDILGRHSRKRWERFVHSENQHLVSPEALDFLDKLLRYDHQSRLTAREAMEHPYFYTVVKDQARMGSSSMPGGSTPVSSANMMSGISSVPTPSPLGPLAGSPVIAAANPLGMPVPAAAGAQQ
Method: (§1) In all experiments the maximum ligand concentration of 10 μM was used to minimize a possible contribution of the secondary binding site.

hCK2α [5] = biological target: T1, hCK2α; set-up: method as in PMID 23155426; details: pH 7.5; cited from earlier work
hCK2α [6] = biological target: T1, hCK2α; assay: Isothermal titration calorimetry (MicroCal iTC200), reverse titration; assay type: binding; details: for ΔGbind, free energy of binding: ITC; for ΔSrt, entropic term for loss of ligand rotational and translational degrees of freedom: calculated from ligand molecular mass; for Ts, temperature at which the entropy change upon ligand binding is zero: estimated from the linear fit of ΔS(T); for ΔSHE(Ts), hydrophobic-effect contribution to the entropy change upon binding: ≈ 1.35∙ΔCp,bind∙ln(Ts/386); for ΔSother, entropy change assigned to all other processes accompanying ligand binding: ΔSrt + ΔSHE(Ts) + ΔSother = 0
Method: ITC measurements were carried out using the MicroCal iTC200 (Malvern) calorimeter. The hCK2α samples were diluted to the required protein concentration with the 25 mM Tris-HCl pH 8 buffer containing 0.5 M NaCl. Stock ligand solutions were diluted with the appropriate DMSO volume prior to mixing with the buffer to obtain the required ligand concentration and a final DMSO content of 1%. Due to the limited solubility of halogenated benzotriazoles, all titration experiments were performed in the reverse mode, in which buffered ligand solution was placed in the calorimetric cell and titrated with the protein solution.[35]
as §1

hCK2α [7] = biological target: T1, hCK2α; set-up: method as in PMID 25891901; details: cited from earlier work
hCK2α [8] = biological target: T1, hCK2α; assay: Fluorescence-monitored thermal denaturation (nanoDSF) of hCK2α complexes; assay type: binding; details: protein 2.5 μM, ligand 25 μM; for Tm (°C) at pH 7.5: hCK2α in complex with ligand; for ΔTm (°C) at pH 7.5: unfolding temperature with ligand minus without
Method: The samples were loaded into nanoDSF grade Standard Capillaries (NanoTemper Technologies) and analyzed using the Prometheus NT.48 nanoDSF device (NanoTemper Technologies). Thermal unfolding of the protein was monitored using a linear thermal ramp (1 °C·min^–1; 20–80 °C) with an excitation power of 30%.
This prompted us to measure the thermal stabilities of hCK2α and its complexes at pH 7.5 by fluorescence-monitored thermal denaturation (nanoDSF) (Table 2).

[9] = iTC200, 15 °C, pH 8, independent experiments separately evaluated
[10] = iTC200, 20 °C, pH 8, independent experiments separately evaluated
[11] = iTC200, 25 °C, pH 8, independent experiments separately evaluated
[12] = iTC200, 30 °C, pH 8, independent experiments separately evaluated
[13] = iTC200, 35 °C, pH 8, independent experiments separately evaluated

| SMILES | log(τ) [1] | α2^0, thermal volumetric expansivity of the solute [2] | V2^0, partial molar volume [2] | log P [3] | IC50 (hCK2α [5]) | ΔGbind, free energy of binding (hCK2α [6]; 25 °C, pH 8) | ΔSrt, entropic term for loss of ligand rotational and translational degrees of freedom (hCK2α [6]) | Ts, temperature at which the entropy change upon ligand binding is zero (hCK2α [6]) | Kd (hCK2α [6]; [9]) | Kd (hCK2α [6]; [10]) | Kd (hCK2α [6]; [11]) | Kd (hCK2α [6]; [12]) | Kd (hCK2α [6]; [13]) | ΔSHE(Ts), hydrophobic-effect contribution to the entropy change upon binding (hCK2α [6]) | ΔTm (°C) at pH 8 (hCK2α [7]) | Tm (°C) at pH 7.5 (hCK2α [8]) | ΔTm (°C) at pH 7.5 (hCK2α [8]) | ΔS (hCK2α [6]; [9]) | ΔS (hCK2α [6]; [10]) | ΔSother, entropy change assigned to all other processes accompanying ligand binding (hCK2α [6]) | further results |
| --- | --- | --- | --- | --- | --- | --- | --- | --- | --- | --- | --- | --- | --- | --- | --- | --- | --- | --- | --- | --- | --- |
| Brc1c(Br)c(Br)c2[nH]nnc2c1Br [4,5,6,7-Br4Bt, 4,5,6,7-tetrabromobenzotriazole] | –0.00 | 0.72 ± 0.28 cm^3·mol^–1·K^–1 | 194.1 ± 1.1 cm^3·mol^–1 | 3.58 | – | – | – | – | – | – | – | – | – | – | – | – | – | – | – | – | – |
| Brc1cc2[nH]nnc2c(Br)c1Br [4,5,6-Br3Bt] | –0.20 | 0.49 ± 0.24 cm^3·mol^–1·K^–1 | 156.0 ± 1.0 cm^3·mol^–1 | 2.96 | 0.38 ± 0.02 µM | –39.5 ± 0.4 kJ·mol^–1 | -301 J∙mol-1∙K-1 | 280 ± 36 K | 89 nM and 51 nM | 114 nM and 130 nM | 123 nM and 116 nM | 189 nM and 109 nM | 160 nM and 215 nM | 295 ± 30 J∙mol-1∙K-1 | 8.4 ± 0.1 °C | 53.84 ± 0.04 °C | 8.7 ± 0.1 °C | – | – | – | Kd (hCK2α [4]; 15 °C): 65 ± 13 nM; ΔG (hCK2α [4]; 15 °C): -39.7 ± 0.5 kJ/mol; ΔH (hCK2α [4]; 15 °C): -29.0 ± 0.6 kJ/mol; ΔS (hCK2α [4]; 15 °C): 37 ± 4 J·mol-1·K-1; Kd (hCK2α [4]; 20 °C): 81 ± 19 nM; ΔG (hCK2α [4]; 20 °C): -39.8 ± 0.6 kJ/mol; ΔH (hCK2α [4]; 20 °C): -31.1 ± 0.9 kJ/mol; ΔS (hCK2α [4]; 20 °C): 30 ± 5 J·mol-1·K-1; Kd (hCK2α [4]; 25 °C): 42 ± 17 nM; ΔG (hCK2α [4]; 25 °C): -42.1 ± 1.0 kJ/mol; ΔH (hCK2α [4]; 25 °C): -39.6 ± 1.3 kJ/mol; ΔS (hCK2α [4]; 25 °C): 9 ± 4 J·mol-1·K-1; Kd (hCK2α [4]; 30 °C): 96 ± 17 nM; ΔG (hCK2α [4]; 30 °C): -40.7 ± 0.5 kJ/mol; ΔH (hCK2α [4]; 30 °C): -47.0 ± 1.2 kJ/mol; ΔS (hCK2α [4]; 30 °C): -21 ± 6 J·mol-1·K-1; Kd (hCK2α [4]; 35 °C): 217 ± 94 nM; ΔG (hCK2α [4]; 35 °C): -39.3 ± 1.1 kJ/mol; ΔH (hCK2α [4]; 35 °C): -56.5 ± 6.1 kJ/mol; ΔS (hCK2α [4]; 35 °C): -56 ± 23 J·mol-1·K-1 |
| Brc1cc(Br)c2[nH]nnc2c1Br [4,5,7-Br3Bt] | –0.22 | 0.55 ± 0.23 cm^3·mol^–1·K^–1 | 174.7 ± 0.9 cm^3·mol^–1 | 2.98 | 5.8 ± 0.9 µM | –34.5 ± 0.4 kJ·mol^–1 | -301 J∙mol-1∙K-1 | 316 ± 33 K | 670 nM and 760 nM | 710 nM and 1200 nM | 900 nM and 910 nM | 1360 nM and 760 nM | 1230 nM and 870 nM | 184 ± 16 J∙mol-1∙K-1 | 5.2 ± 0.1 °C | 49.81 ± 0.07 °C | 4.6 ± 0.1 °C | 69 ± 8 J·mol-1·K-1 and 56 ± 8 J·mol-1·K-1 | 53 ± 6 J·mol-1·K-1 and 47 ± 11 J·mol-1·K-1 | 118 ± 16 J∙mol-1∙K-1 | ΔG (hCK2α [6]; [11]): -34.5 ± 0.5 kJ/mol and -34.5 ± 0.8 kJ/mol; ΔS (hCK2α [6]; [11]): 34 ± 5 J·mol-1·K-1 and 38 ± 9 J·mol-1·K-1; ΔS (hCK2α [6]; [12]): 24 ± 8 J·mol-1·K-1 and 34 ± 6 J·mol-1·K-1; ΔS (hCK2α [6]; [13]): 15 ± 6 J·mol-1·K-1 and 8 ± 6 J·mol-1·K-1 |
| Brc1ccc2[nH]nnc2c1Br [4,5-Br2Bt] | –0.39 | 0.36 ± 0.21 cm^3·mol^–1·K^–1 | 151.7 ± 0.9 cm^3·mol^–1 | 2.34 | 10.6 ± 0.9 µM | –34.9 ± 0.4 kJ·mol^–1 | -291 J∙mol-1∙K-1 | 299 ± 37 K | 260 nM and 470 nM | 610 nM and 540 nM | 770 nM and 670 nM | 880 nM and 1430 nM | 1440 nM and 1160 nM | 148 ± 17 J∙mol-1∙K-1 | 3.5 ± 0.1 °C | 49.55 ± 0.05 °C | 4.4 ± 0.1 °C | 21 ± 6 J·mol-1·K-1 and 22 ± 6 J·mol-1·K-1 | 8 ± 6 J·mol-1·K-1 and 7 ± 15 J·mol-1·K-1 | 143 ± 17 J∙mol-1∙K-1 | ΔH (hCK2α [6]; [10]): -33.0 ± 1.5 kJ/mol and -33.0 ± 3.7 kJ/mol |
| Brc1cc(Br)c2n[nH]nc2c1 [4,6-Br2Bt] | –0.38 | 0.41 ± 0.21 cm^3·mol^–1·K^–1 | 155.4 ± 0.9 cm^3·mol^–1 | 2.37 | 10 ± 2.2 µM | –34.5 ± 0.4 kJ·mol^–1 | -291 J∙mol-1∙K-1 | 301 ± 47 K | 343 nM and 540 nM | 550 nM and 680 nM | 900 nM and 880 nM | 1250 nM and 1140 nM and 840 nM | 2400 nM and 1770 nM | 148 ± 20 J∙mol-1∙K-1 | 3.6 ± 0.1 °C | 49.21 ± 0.04 °C | 4.0 ± 0.1 °C | 26 ± 8 J·mol-1·K-1 and 23 ± 12 J·mol-1·K-1 | 7 ± 15 J·mol-1·K-1 and 11 ± 13 J·mol-1·K-1 | 143 ± 20 J∙mol-1∙K-1 | ΔS (hCK2α [6]; [11]): 5 ± 8 J·mol-1·K-1 and 9 ± 15 J·mol-1·K-1; ΔS (hCK2α [6]; [13]): -26 ± 71 J·mol-1·K-1 and -26 ± 13 J·mol-1·K-1 |
| Brc1ccc(Br)c2n[nH]nc12 [4,7-Br2Bt] | –0.55 | 0.19 ± 0.25 cm^3·mol^–1·K^–1 | 149.8 ± 1.0 cm^3·mol^–1 | 2.37 | 72 ± 11 µM | – | – | – | – | – | – | – | – | – | 0.9 ± 0.1 °C | 47.15 ± 0.03 °C | 2.0 ± 0.1 °C | – | – | – | – |
| Brc1cccc2n[nH]nc12 [4-BrBt] | –0.65 | 0.30 ± 0.08 cm^3·mol^–1·K^–1 | 139.6 ± 0.3 cm^3·mol^–1 | 1.72 | 119 ± 10 µM | – | – | – | – | – | – | – | – | – | 0.5 ± 0.1 °C | 45.92 ± 0.05 °C | 0.7 ± 0.1 °C | – | – | – | – |
